In patent EP2671872A1, “Fluorinated pyridylacetylene derivatives as tracers” (Eidgenössische Technische Hochschule Zürich (ETH), priority 2012, dated 2013):
Where two headings read alike, the source gives them in different places. Blank lines part the entries; values can stand above or below the molecule they belong to.

Columns and labels:
[1] = defluorination by human S9 fraction of liver homogenate; type: in vitro ADME
[2] = defluorination in vivo in rats
[3] = defluorination by human liver microsomes; type: in vitro ADME
[4] = target: T1, mGluR5 (Rattus norvegicus, UniProt P31424); experiment: PET scan of rat brain, kinetic behavior (ratio of specifically bound to free ligand); type: in vivo, Wistar rat; parameters: from tissue; host or cells: brain of living male Wistar rat (in vivo PET); conditions: tail vein injection
T1 sequence (P31424 21-1203): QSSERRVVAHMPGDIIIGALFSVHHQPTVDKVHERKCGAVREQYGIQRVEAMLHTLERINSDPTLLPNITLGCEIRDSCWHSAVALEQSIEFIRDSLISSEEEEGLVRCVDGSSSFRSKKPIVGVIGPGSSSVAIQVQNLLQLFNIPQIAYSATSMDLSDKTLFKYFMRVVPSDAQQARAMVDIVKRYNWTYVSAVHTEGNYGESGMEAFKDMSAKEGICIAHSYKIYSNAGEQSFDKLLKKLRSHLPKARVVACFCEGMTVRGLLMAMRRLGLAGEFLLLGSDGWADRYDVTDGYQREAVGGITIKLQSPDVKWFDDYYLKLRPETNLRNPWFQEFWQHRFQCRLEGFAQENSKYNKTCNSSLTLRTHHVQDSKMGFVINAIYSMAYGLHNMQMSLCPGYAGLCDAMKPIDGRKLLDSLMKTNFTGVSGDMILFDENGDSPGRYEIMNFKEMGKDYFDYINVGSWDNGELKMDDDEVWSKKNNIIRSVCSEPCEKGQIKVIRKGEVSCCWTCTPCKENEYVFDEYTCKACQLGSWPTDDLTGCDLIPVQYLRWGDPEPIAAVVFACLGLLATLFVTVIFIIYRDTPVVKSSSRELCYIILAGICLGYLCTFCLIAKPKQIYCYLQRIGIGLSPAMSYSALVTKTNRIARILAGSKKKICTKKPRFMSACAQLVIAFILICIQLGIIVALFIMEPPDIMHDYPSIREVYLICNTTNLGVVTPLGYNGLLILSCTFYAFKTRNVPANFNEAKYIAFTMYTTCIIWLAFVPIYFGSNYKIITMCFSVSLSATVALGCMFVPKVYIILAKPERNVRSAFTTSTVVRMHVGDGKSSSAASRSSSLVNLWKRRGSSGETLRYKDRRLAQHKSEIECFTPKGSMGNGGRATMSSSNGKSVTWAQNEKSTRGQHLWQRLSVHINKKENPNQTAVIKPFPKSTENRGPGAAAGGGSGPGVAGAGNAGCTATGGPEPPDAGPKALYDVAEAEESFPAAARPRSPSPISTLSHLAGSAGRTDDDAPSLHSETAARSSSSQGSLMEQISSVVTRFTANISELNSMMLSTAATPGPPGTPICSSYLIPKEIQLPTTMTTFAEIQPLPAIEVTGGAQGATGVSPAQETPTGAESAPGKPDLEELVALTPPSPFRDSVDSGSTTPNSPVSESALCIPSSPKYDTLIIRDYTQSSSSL
Procedure: A male Wistar rat (423 g) was injected 23.1 MBq [^18F]PSS232 into a tail vein and PET was acquired from 0 to 90 min post injection. […] Only brain is shown. SUV denotes standardized uptake value.
PET scans analogous to those of Example 3 were recorded after administration of [^18F]PSS232 (Fig. 7, red curves, circles and diamonds), [^11C]ABP688 (Fig. 7, black curves, squares and triangles) and [^18F]FDEGPECO (Fig. 7, blue curves, crosses and crossed bars).
Fig. 9 illustrates the favorable kinetic behavior of PSS232. The ratio of specifically bound PSS232 in caudate putamen (striatum) to free ligand PSS232 (radioactivity in cerebellum is considered to originate from free ligand) becomes constant at about 40 min after injection, thus allowing the estimation of the binding potential (BP). This is an advantage over [^11C]ABP688 where the equilibrium is not reached within 60 min and the short physical half-life of ^11C (20 min) limits the scan duration.

[5] = defluorination by rat liver microsomes; type: in vitro ADME
[6] = target: T2, rat mGluR5 (Rattus norvegicus, UniProt P31424); experiment: displacement assay with rat brain membranes and [^3H]ABP688; type: binding; conditions: radioligand of the displacement assay, used at 1.6 nM, rat brain membranes
T2 construct: displacement assay with rat brain membranes and 1.6 nM [^3H]ABP688; from tissue; host or cells: rat brain membranes
T2 sequence (P31424 21-1203): as above

[7] = rodents; background; cited from earlier work
[8] = humans; background, relative to rodents and monkeys; cited from earlier work
[9] = monkeys; background; cited from earlier work
[10] = target: T1, mGluR5; conditions: background, literature; cited from earlier work
[11] = rats; background, literature; cited from earlier work
[12] = target: T1, mGluR5; experiment: ex vivo brain distribution after MMPEP pre-injection at various doses (receptor occupancy); conditions: estimated from fit of MMPEP dose curve; 45 min after injection
[13] = target: T1, mGluR5; experiment: in vitro autoradiography of rat brain slices; type: binding; parameters: from tissue; host or cells: brain of living animal (in vivo PET, tail vein injection); conditions: about 1 nM tracer, 20 µm slices; compared with 100 nM ABP688 (mGluR5 ligand) or JNJ16259685 (mGluR1 ligand)
Procedure: In Fig. 4 two rat brain slices (20 µm) each were incubated with about 1 nM [^18F]PSS232 in the absence of any unlabeled compound (top) or with 100 nM of the specific mGluR5 ligand ABP688 (middle) or of mGluR1 ligand JNJ16259685 (bottom). […] It should be noted that mGluR1 is the receptor with most similar amino acid sequence to mGluR5.

[14] = target: T1, mGluR5; experiment: ex vivo brain distribution with MTEP blockade (gamma counter); type: in vivo, Rats; parameters: from tissue; host or cells: rat brain regions after in vivo injection; conditions: 45 min after injection
Procedure: Rats were pre-injected (tail vein) with 10 mg/kg MTEP (a specific mGluR5 antagonist) before [^18F]PSS232 injection (= blockade, see green, right bars in Fig. 10) or they were pre-injected with vehicle (= baseline, see blue, left, bars in Fig. 10).

- defluorination [1]: not significantly defluorinated
- defluorination in vivo [2]: does not show significant defluorination
- defluorination [3]: not significantly defluorinated
- time after injection at which ratio of specifically bound (caudate putamen/striatum) to free ligand (cerebellum) becomes constant (equilibrium) [4]: about 40 min
- defluorination [5]: not significantly defluorinated
Molecule: FCCOCCCO/N=C1/C=C(C#Cc2ccccn2)CCC1 [PSS232, (E)-3-(pyridin-2-ylethynyl)-cyclohex-2-enone O-(3-(2-fluoroethoxy)propyl) oxime]

- Kd [6]: 1.7 nM
Molecule: CON=C1C=C(C#Cc2cccc(C)n2)CCC1 [[^3H]ABP688]

- time after injection at which ratio of specifically bound (caudate putamen/striatum) to free ligand (cerebellum) becomes constant (equilibrium) [4]: > 60 min
Molecule: Cc1cccc(C#CC2=C/C(=N/O[11CH3])CCC2)n1 [[^11C]ABP688, (E)-3-((6-methylpyridin-2-yl)ethynyl)cyclohex-e-enone-O-^11C-methyl oxime]

- maximal specific binding in striatum [12]: 78.5%
- accumulation in mGluR5-rich domains of rat brain slices [13]: high, mGluR5-selective accumulation
- average specific binding in striatum ([14]; baseline (vehicle) vs blockade with 10 mg/kg MTEP): 86.6%
Molecule: FCCOCCCO/N=C1/C=C(C#Cc2ccccn2)CCC1 [[^18F]PSS232, (E)-3-(pyridin-2-ylethynyl)-cyclohex-2-enone O-(3-(2-fluoroethoxy)propyl) oxime]

Further lines, the molecule ahead of its results:

Molecule: N#Cc1cc(F)cc(C#Cc2csc(C[18F])n2)c1 [[^18F]-SP203]
- defluorination [7]: significant defluorination
- defluorination [8]: to a lesser extent
- defluorination [9]: significant defluorination

Molecule: [18F]CCOCCO/N=C1/C=C(C#Cc2ccccn2)CCC1 [[^18F]FDEGPECO, (E)-3-(Pyridin-2-ylethynyl)-cyclohex-2-enone-O-2-(2-^18F-fluoroethoxy)ethyl oxime]
- mean residence time at the target site [10]: relatively short

Molecule: [18F]CCCOCCO/N=C1/C=C(C#Cc2ccccn2)CCC1 [[^18F]PSS223, (E)-3-(pyridin-2-ylethynyl)cyclohex-2-enone O-(2-(3-^18F-fluoropropoxy)ethyl) oxime]
- defluorination in vivo [11]: rapid defluorination

Molecule: MTEP
- radioactivity of brain regions after MTEP pre-injection ([14]; 10 mg/kg MTEP tail vein before [^18F]PSS232): all brain regions have similar radioactivity as in cerebellum
